Laboratory results taken from US4745102A, “Novel treatment method” (Roussel Uclaf, priority 1979, dated 1988).
“Also recorded” adds a separate entry of the source.

What was measured:
[1] = system: testicular steroidogensis; test: Inhibition of testicular steroidogenesis in healthy men, single intranasal dose; seric LH, FSH and steroids by radioimmunoassay; format: in vivo
Procedure: The inhibitory activity of [D Ser (tbu)^6 of des Gly NH2^10 ] LH-RH ethylamide (described in German application Ser. No. 2,438,350) against testicular steroidogensis in men in good health was determined on men in good health aged 30 to 40 years. The said product was administered intranasally at a dose of 500 μg in a few drops of distilled water at 8 A.M. on the third day of the test. For 2 days prior to the treatment and for 6 days after the treatment, samples of blood were taken daily at 8 A.M., 3 P.M. and 10 P.M. On the day of administration of the LH-RH agonist, blood samples were taken at 11 A.M. and 6 P.M.
The seric concentrations of LH and FSH were measured by radioimmuno-logic dosages with double antibodies and the antibodies for measuring LH and FSH were furnished by the National Pituitary Agency of N.I.H. in Bethesda, Md. The seric concentrations of steroids was measured by radioimmuno-logic dosages in which one ml of serum was extracted with ether and the steroids were separated on a LH-20 column before measuring with radioimmuno-logic dosages. The radioimmuno-logic dosage results were determined by a program derived from model II of Rodbard et al [Second Karolinska Symposium on Research Methods in Reproductive Endrocrinology, Diczfalusky Editor, Copenhague (1970), p. 79-103]. The statistical significance was determined by the "multiple level test" of Ducan-Kramer [Kramer, Biometrics, Vol 12 (1956), p. 307]. The results are shown in the graphs on sheet 1 of the FIGS. filed herewith.

[2] = system: testicular steriodogenosis; test: Inhibition of testicular steroidogenesis in a patient with prostate cancer, intranasal twice a day; format: in vivo, human; conditions: intranasal 500 μg twice a day
Text: The inhibitory activity of [D Ser (tbu)^6 des Gly NH2^10 ] […] The results are reported in the graphs of sheet 2 of the Figures.

[3] = system: ovarian steroidogenosis; test: Inhibition of ovarian steroidogenesis in women, intranasal, 6 consecutive cycles; format: in vivo; conditions: for reduction of seric levels of progesterone as compared to the controls: typical case (sheet 3)
Procedure: The inhibitory activity of [D Ser (tbu)^6 des Gly NH2^10 ] LH-RH ethylamide on ovarian steroidogenosis in women was determined on 6 women aged 26 to 35 years with normal and regular menstrual cycles and without prior endocrinal or gynecological problems. The study was conducted for 6 consecutive cycles consisting of 2 pretreatment cycles, 2 treatment cycles and 2 post-treatment cycles. Two drops of a solution containing 500 μg of [D Ser (tbu)^6 des Gly NH2^10 ] LH-RH ethylamide were deposited on each nostril at 8 A.M. and 5P.M. of a day between the 4th and 9th day after the peak of LH-day 0. Daily blood samples were taken between 4 and 6 P.M. to measure seric levels of LH, FSH, progesterone and estradiol which were determined by radioimmuno-logictests with double antibodies. The antibodies to measure LH and FSH were furnished by the National Pituitory Agency of N.I.H. of Bethesda, Md.
Estradiol and progesterone were measued with highly specific antibodies developed against 7-(0-carboxymethyl)oxime of estradiol and 12-(0-carboxymethyl)-oxime of progesterone, respectively [3H] 17β-estradiol and ^125 I-progesterone-12-[0-carboxymethyl)-oxime]used as tracers. The serum was extracted with benzene and the steroids were separated with a LH-20 column before the determination. The radioimmunological results were exploited by the program derived from model II of Rodbard and Lewald as in Example 1 and the statistical significance was measured by the multiple level test of Ducan-Kramer of Example 1. The results are shown in the graphs of sheets 3 to 5 of the FIG.

CCNC(=O)[C@@H]1CCCN1C(=O)[C@H](CCCNC(=N)N)NC(=O)[C@H](CC(C)C)NC(=O)[C@@H](COC(C)(C)C)NC(=O)[C@H](Cc1ccc(O)cc1)NC(=O)[C@H](CO)NC(=O)[C@H](Cc1c[nH]c2ccccc12)NC(=O)[C@H](Cc1c[nH]cn1)NC(=O)[C@@H]1CCC(=O)N1 [[D Ser (tbu)^6 des Gly NH2^10] LH-RH ethylamide]
duration of drop of seric levels of testicular steroids (testosterone and its precursors) ([1]; human, single intranasal dose 500 μg): 3 days | level of testosterone/steroids on the fourth day after administration ([1]; human, single intranasal dose 500 μg, fourth day (until 6th day)): returned to normal; also recorded: return to normal levels | overall effect on testicular steroidogenesis ([1]; men, intranasal 500 μg): inhibition of testicular steroidogenesis | level of androgenic steroids [2]: diminution | level of progesterone, cycles of pretreatment as base of 100% ([3]; 12 cycles of post-treatment): 99% | level of progesterone, cycles of pretreatment as base of 100% ([3]; 12 cycles of treatment): 46% | level of progesterone reduced as compared to the controls ([3]; all results (sheet 5), cycles of treatment): 46% | level of seric progesterone in the 2 cycles of post-treatment ([3]; sheet 4, post-treatment cycles): return to normal | level of seric progesterone in the 2 cycles of treatment ([3]; sheet 4, treatment cycles): accelerated diminution | reduction of seric levels of progesterone as compared to the controls ([3]; first cycle of treatment, intranasal 500 μg at 8 A.M. and 5 P.M.): 13% | reduction of seric levels of progesterone as compared to the controls ([3]; second cycle of treatment): 34%
